Data set [1] is described as follows: Solubility limit, turbidimetric assay. It counts as physicochemical. As to conditions: for Average Sol (solubility limit) / Sol 1 (solubility limit) / Sol 2 (solubility limit) / Sol 3 (solubility limit) / Sol 4 (solubility limit): upper limit 200 µM. How it is done: Solubility limits were determined by a turbidimetric assay, as described ([27]), with the solubility limit being defined as the compound concentration where light scattering began to rise. Two or more replicate assays were performed for each compound at each pH on different days.

Data set [2] relates to HBV replication (HBV plus-polarity DNA strand). Nature of the data set: HBV replication inhibition, strand preferential qPCR in hepDES19 cells. It counts as cell-based, hepatitis B virus. As to conditions: for EC50: 72 h exposure, HBV plus-polarity strand suppression, highest concentration tested 100 µM, mean ± SD, read-out: HepDES19 EC50. The protocol: HBV replication inhibition was measured in hepDES19 cells following 72 h compound exposure without compound replenishment. EC50 values were determined by HBV plus-polarity strand suppression using a strand preferential qPCR assay, as described previously ([28]). Three or more replicate values were obtained on different days.

A short description of data set [3]: Parallel artificial membrane permeability assay (PAMPA). It counts as in vitro ADME. As to conditions: for Papp 3 (PAMPA): pH 7.4, replicate 3; for Papp 4 (PAMPA): pH 7.4, replicate 4. The protocol:
Compound Papp values were determined by normalizing the experimental compound absorbance to the compounds’ absorbances at equilibrium, membrane porosity, buffer volume, and time (s). Two or more replicate assays were obtained on separate days for each pH.

In a further data set the test system is HepDES19 cells. The following applies: read-out: HepDES19 CC50; 72 h, MTS; highest concentration tested 100 µM; mean ± SD.
A further data set is described as follows: Microsome stability. It counts as in vitro ADME, human. As to conditions: both sexes, human liver microsomes, 1 µM compound, 30 min, NADPH. The protocol: Human liver microsomes (gender pooled, 50 individuals) were purchased from BioIVT and stored at −80°C until use. […] Reactions were initiated by addition of 1.2 mM NADPH. […] Microsomal proteins were pelleted at 4,000 × g and the supernatant was analyzed via LCMS/MS. […] The ln percent remaining values were plotted against time, the negative slope was taken (k), and compound half-life (t1/2) was determined using ln2/k. Intrinsic clearance (Clint [µL/min/mg]) was calculated by (V × ln2)/t1/2, where V is the incubation volume (µL) divided by the protein concentration in the reaction (mg) ([31]).

Setting [4] is: pH 5 (fed simulated intestinal fluid).
Where [5] appears, read: pH 6.5 (fasted simulated intestinal fluid).

These results are taken from article PMC11784145, “Efficacy and in vitro pharmacological assessment of novel N-hydroxypyridinediones as hepatitis B virus ribonuclease H inhibitors” (Antimicrobial Agents and Chemotherapy, 2024).

Take `COc1ccc(CON=C(C)c2c(C)cc(=O)n(O)c2O)cc1OC` [Compound 1669]: the “Average Sol (solubility limit)” value in data set [1] (setting [4]), in data set [1] (setting [5]) and in data set [1] (pH 7.4 (DMEM-F12 with 10% FBS)) was over 200 µM throughout. Also, the “Sol 1 (solubility limit)” value in data set [1] (pH 5, replicate 1) is listed as over 200 µM; in data set [1] (pH 6.5, replicate 1) it was over 200 µM; in data set [1] (pH 7.4, replicate 1) it was over 200 µM. The “Sol 2 (solubility limit)” value is reported as over 200 µM in data set [1] (pH 5, replicate 2); over 200 µM in data set [1] (pH 6.5, replicate 2); over 200 µM in data set [1] (pH 7.4, replicate 2). Further, the “HepDES19 SI (CC50/EC50)” value in data set [2] came out at 80.6. Besides, the EC50 in data set [2] was found to be 1.13 ± 0.955 µM. The “Avg Papp (PAMPA)” value in data set [3] (FeSSIF pH 5) came to 56.7 ×10⁻⁶ cm/s; in data set [3] (pH 7.4), 2.12 ×10⁻⁶ cm/s. The “Interpretation (PAMPA Papp)” value in data set [3] (FeSSIF pH 5) and in data set [3] (pH 7.4) was “H (H: Papp > 1*10-6)” throughout. Moreover, the “Papp 1 (PAMPA)” value was determined as 57.9 ×10⁻⁶ cm/s in data set [3] (FeSSIF pH 5, replicate 1) and 2.03 ×10⁻⁶ cm/s in data set [3] (pH 7.4, replicate 1). Further, the “Papp 2 (PAMPA)” value turned out to be 55.5 ×10⁻⁶ cm/s in data set [3] (FeSSIF pH 5, replicate 2) and 2.2 ×10⁻⁶ cm/s in data set [3] (pH 7.4, replicate 2). Moreover, the CC50 in the data set on HepDES19 cells is 91 ± 15.6 µM.
`CC(=NOCc1ccccc1C)c1c(C)cc(=O)n(O)c1O` [Compound 1681]: the “Average Sol (solubility limit)” value in data set [1] (setting [4]) is listed as over 200 µM; in data set [1] (setting [5]) it was over 200 µM; in data set [1] (pH 7.4 (DMEM-F12 with 10% FBS)), 106 µM. Also, the “Sol 1 (solubility limit)” value in data set [1] (pH 5, replicate 1) is on record as over 200 µM; in data set [1] (pH 6.5, replicate 1) it was over 200 µM; in data set [1] (pH 7.4, replicate 1), 25 µM. Besides, the “Sol 2 (solubility limit)” value in data set [1] (pH 5, replicate 2) is on record as over 200 µM; in data set [1] (pH 6.5, replicate 2), over 200 µM; in data set [1] (pH 7.4, replicate 2), 100 µM. The “Sol 3 (solubility limit)” value in data set [1] (pH 7.4, replicate 3) is recorded as over 200 µM. Moreover, in data set [1] (pH 7.4, replicate 4), the “Sol 4 (solubility limit)” value is 100 µM. In addition, the “HepDES19 SI (CC50/EC50)” value in data set [2] was found to be 25.2. In addition, the EC50 in data set [2] was 3.97 ± 1.19 µM. The “Avg Papp (PAMPA)” value in data set [3] (FeSSIF pH 5) is 30 ×10⁻⁶ cm/s; in data set [3] (pH 7.4) it was 4.73 ×10⁻⁶ cm/s. The “Interpretation (PAMPA Papp)” value in data set [3] (FeSSIF pH 5) and in data set [3] (pH 7.4) was “H (H: Papp > 1*10-6)” in each case. Moreover, the “Papp 1 (PAMPA)” value in data set [3] (FeSSIF pH 5, replicate 1) came out at 28.5 ×10⁻⁶ cm/s; in data set [3] (pH 7.4, replicate 1) it was 3.11 ×10⁻⁶ cm/s. The “Papp 2 (PAMPA)” value was 31.5 ×10⁻⁶ cm/s in data set [3] (FeSSIF pH 5, replicate 2) and 9.39 ×10⁻⁶ cm/s in data set [3] (pH 7.4, replicate 2). Moreover, the “Papp 3 (PAMPA)” value in data set [3] came out at 4.69 ×10⁻⁶ cm/s. In addition, in data set [3], the “Papp 4 (PAMPA)” value came to 1.74 ×10⁻⁶ cm/s. Moreover, in the data set on HepDES19 cells, the CC50 was over 100 µM.
On to `CC(=NOCc1ccc(Br)cc1)c1c(C)cc(=O)n(O)c1O` [Compound 1717], for which the figures for the “Average Sol (solubility limit)” value in data set [1] (setting [4]), in data set [1] (setting [5]) and in data set [1] (pH 7.4 (DMEM-F12 with 10% FBS)) were 100 µM, 50 µM and 138 µM, respectively. Moreover, the “Sol 1 (solubility limit)” value in data set [1] (pH 5, replicate 1) came out at 100 µM; in data set [1] (pH 6.5, replicate 1), 50 µM; in data set [1] (pH 7.4, replicate 1), 50 µM. The “Sol 2 (solubility limit)” value is on record as 100 µM in data set [1] (pH 5, replicate 2); 50 µM in data set [1] (pH 6.5, replicate 2); over 200 µM in data set [1] (pH 7.4, replicate 2). Also, the Solubility limit category result in data set [1] (setting [5]) is “partially soluble (partially soluble (100–1 µM))”. The “Sol 3 (solubility limit)” value in data set [1] (pH 6.5, replicate 3) was 50 µM; in data set [1] (pH 7.4, replicate 3), over 200 µM. For the same molecule, the “Sol 4 (solubility limit)” value in data set [1] (pH 7.4, replicate 4) is on record as 100 µM. Also, the “HepDES19 SI (CC50/EC50)” value in data set [2] came to 52.7. In addition, the concentration for a half-maximal effect (EC50) in data set [2] was 1.13 ± 0.186 µM. Moreover, the “Avg Papp (PAMPA)” value in data set [3] (pH 7.4) turned out to be 1.61 ×10⁻⁶ cm/s. Further, the “Interpretation (PAMPA Papp)” value in data set [3] (pH 7.4) is “H (H: Papp > 1*10-6)”. Also, the “Papp 1 (PAMPA)” value in data set [3] (pH 7.4, replicate 1) amounted to 1.61 ×10⁻⁶ cm/s. In addition, the “Papp 2 (PAMPA)” value in data set [3] (pH 7.4, replicate 2) was 1.61 ×10⁻⁶ cm/s. In addition, in the data set on HepDES19 cells, the CC50 worked out at 76.7 ± 30.3 µM.
`CC(=NOCc1ccccc1Br)c1c(C)cc(=O)n(O)c1O` [Compound 1718]: the “Average Sol (solubility limit)” value in data set [1] (setting [4]) is given as over 200 µM; in data set [1] (setting [5]), 138 µM; in data set [1] (pH 7.4 (DMEM-F12 with 10% FBS)), 150 µM. Besides, the “Sol 1 (solubility limit)” value in data set [1] (pH 5, replicate 1) is listed as over 200 µM; in data set [1] (pH 6.5, replicate 1) it was 50 µM; in data set [1] (pH 7.4, replicate 1), 50 µM. The “Sol 2 (solubility limit)” value in data set [1] (pH 5, replicate 2) is on record as over 200 µM; in data set [1] (pH 6.5, replicate 2), 100 µM; in data set [1] (pH 7.4, replicate 2), over 200 µM. Moreover, the “Sol 3 (solubility limit)” value in data set [1] (pH 6.5, replicate 3) is given as over 200 µM; in data set [1] (pH 7.4, replicate 3), over 200 µM. Also, in data set [1] (pH 6.5, replicate 4), the “Sol 4 (solubility limit)” value is given as over 200 µM. Further, the “HepDES19 SI (CC50/EC50)” value in data set [2] is 34.1. Besides, the EC50 in data set [2] was 2 ± 1.63 µM. For the same molecule, the “Avg Papp (PAMPA)” value in data set [3] (FeSSIF pH 5) came out at 43.6 ×10⁻⁶ cm/s; in data set [3] (pH 7.4), 3.22 ×10⁻⁶ cm/s. Also, the “Interpretation (PAMPA Papp)” value in data set [3] (FeSSIF pH 5) and in data set [3] (pH 7.4) was “H (H: Papp > 1*10-6)” in each case. Also, the “Papp 1 (PAMPA)” value stood at 37.3 ×10⁻⁶ cm/s in data set [3] (FeSSIF pH 5, replicate 1) and 3.31 ×10⁻⁶ cm/s in data set [3] (pH 7.4, replicate 1). For the same molecule, the “Papp 2 (PAMPA)” value in data set [3] (FeSSIF pH 5, replicate 2) amounted to 50 ×10⁻⁶ cm/s; in data set [3] (pH 7.4, replicate 2) it was 3.07 ×10⁻⁶ cm/s. The “Papp 3 (PAMPA)” value in data set [3] is 3.29 ×10⁻⁶ cm/s. In addition, the CC50 with HepDES19 cells amounted to 80.8 ± 27.5 µM.
As for `CC(=NOCc1ccc2ccccc2c1)c1c(C)cc(=O)n(O)c1O` [Compound 1811], in data set [1] (pH 5.0 (fed simulated intestinal fluid)), the Solubility limit category entry was “partially soluble (partially soluble (100–1 µM))”. Moreover, the “Average Sol (solubility limit)” value in data set [1] (setting [4]) was 50 µM; in data set [1] (setting [5]), over 200 µM; in data set [1] (pH 7.4 (DMEM-F12 with 10% FBS)) it was 167 µM. The “Sol 1 (solubility limit)” value is listed as 50 µM in data set [1] (pH 5, replicate 1); over 200 µM in data set [1] (pH 6.5, replicate 1); 100 µM in data set [1] (pH 7.4, replicate 1). The “Sol 2 (solubility limit)” value in data set [1] (pH 5, replicate 2) is given as 50 µM; in data set [1] (pH 6.5, replicate 2), over 200 µM; in data set [1] (pH 7.4, replicate 2), over 200 µM. Also, the “Sol 3 (solubility limit)” value in data set [1] (pH 7.4, replicate 3) was over 200 µM. Besides, the “HepDES19 SI (CC50/EC50)” value in data set [2] was 71.3. Besides, the EC50 in data set [2] came out at 1.4 ± 1.19 µM. In addition, the “Avg Papp (PAMPA)” value in data set [3] (pH 7.4) was 3.57 ×10⁻⁶ cm/s. In data set [3] (pH 7.4), the “Interpretation (PAMPA Papp)” value is “H (H: Papp > 1*10-6)”. The “Papp 1 (PAMPA)” value in data set [3] (pH 7.4, replicate 1) was determined as 1.71 ×10⁻⁶ cm/s. Also, in data set [3] (pH 7.4, replicate 2), the “Papp 2 (PAMPA)” value turned out to be 3.97 ×10⁻⁶ cm/s. For the same molecule, the “Papp 3 (PAMPA)” value in data set [3] was 4.02 ×10⁻⁶ cm/s. In addition, in data set [3], the “Papp 4 (PAMPA)” value is 4.6 ×10⁻⁶ cm/s. Moreover, the CC50 in the data set on HepDES19 cells was determined as 64.3 ± 25.2 µM.
In “Microsome stability”, `CC(C)c1nc(CN(C)C(=O)N[C@H](C(=O)N[C@@H](Cc2ccccc2)C[C@H](O)[C@H](Cc2ccccc2)NC(=O)OCc2cncs2)C(C)C)cs1` [Ritonavir, ritonavir, reference compound] returned a half-life at 1 µM of 23.3 min. Besides, in “Microsome stability” (read-out: Clearance (intrinsic clearance, Clint)), the microsomal CLint at 1 µM stood at 45.2 µL/min/mg.
